{
  "source": "patent US11712466B2",
  "about": "“Vaccine composition” (TOHOKU UNIVERSITY, priority 2017, dated 2023)",
  "key": {"mZeb1": {"test_system": "mZeb1", "test": "Gene expression in excised tumor tissue by real-time PCR, mZeb1", "type": "in vivo, mouse", "conditions": "tumor excised two weeks after implantation", "experimental": "The mouse implanted with the tumor cells in Example 2 was sacrificed two weeks after implantation of the tumor cells, and a tumor was excised from the right axillary subcutaneous region. By using RNeasy Plus Kit (Qiagen, Inc.), extraction of the total RNA from the excised tumor and purification thereof were carried out. By using the obtained total RNA as a template, cDNA was synthesized by reverse transcription reaction. The cDNA was analyzed by performing real-time PCR using a mixed solution of the obtained cDNA and SYBR green (TAKARA BIO, Inc.)."}, "[1]": {"test_system": "RH30 rhabdomyosarcoma cells", "test": "In vitro wound migration method with serum of immunized mouse (RH30)", "type": "cell-based, human", "conditions": "1% serum of mouse with increased anti-VASH2 titer after vaccine; 24 and 48 hours", "experimental": "By using the serum derived from a mouse in which an increase in the antibody titer against the recombinant human VASH2 protein by administration of the MTG peptide vaccine was confirmed, the effect on the migration ability of various types of cancer cells was examined by an in vitro wound migration method. Mouse-derived Lewis lung cancer cells and human-derived RH30 rhabdomyosarcoma cells were added to a 6-well plate at 1.0×10^6 cells each. After 24 hours, a formed cell monolayer was wounded and linearly exfoliated. After the exfoliation, the medium was replaced with fresh 0.5% FBS+RPMI medium supplemented with 1% mouse serum. At 24 hours and 48 hours after the medium replacement, the image of the cell monolayer was captured using an IX71 inverted microscope (manufactured by Olympus Corporation), and a cell migration distance of each time zone was analyzed using ImageJ software. The analysis was carried out according to the following formula. Cell migration distance (%)={(A−B)/A}×100\nA: Width of initial wound, B: Width of wound after 24 hours or 48 hours"}, "[2]": {"test_system": "antigen peptide (peptide-conjugated BSA)", "test": "Antibody titer in blood of immunized mice by ELISA against antigen peptide", "type": "in vivo, mouse", "source_text": "C57BL/6J male mice aged 8 weeks were purchased from Charles River Laboratories Japan, Inc. After the delivery, the mice were reared in an environment where the room temperature and the light and dark cycles were maintained, and were provided with feed and water ad libitum. As a candidate sequence leading to activation of helper T cells by MHC class II, two peptide sequences: MTGSAADTHR (SEQ ID NO: 4; hereinafter, a peptide composed of the amino acid sequence is referred to as “MTG peptide”) and RRRQASPPRR (SEQ ID NO: 5; hereinafter, a peptide composed of the amino acid sequence is referred to as “RRR peptide”), each of which is not common to VASH1 in the VASH2 sequence were selected (FIG. 1). With respect to these peptides, peptide vaccines using KLH as a carrier were constructed. Note that for the conjugation of each peptide with KLH, a glutaraldehyde method was used. When the amount of the peptide introduced into KLH was measured for each of the obtained peptide vaccines, the amount of MTG was 66 to 70 nmol/mg of the conjugate, and the amount of RRR was 62 to 76 nmol/mg of the conjugate. Subsequently, 5 μg of KLH (control) and 20 μg of each of the KLH-antigen complexes were prepared with physiological saline so that the total amount was 50 μL, respectively, whereby KLH-mixed solutions were obtained. To each of the KLH-mixed solutions (50 μL), an equal amount of complete Freund's adjuvant was added. The obtained mixture was subcutaneously administered to the mice, whereby initial immunization was carried out. After 2 weeks from the administration, booster immunization was carried out by subcutaneously administering a mixture of each of the KLH-mixed solutions (50 μL) and an equal amount of incomplete Freund's adjuvant to the mice. Further, after 2 weeks from the booster immunization (after a total of 4 weeks), an increase in the antibody titer in the blood of each of the immunized mice was verified by ELISA.\nThe measurement of the antibody titer by ELISA was carried out as follows. After 2 weeks from the booster immunization (after a total of 4 weeks), the blood was collected from the facial vein of each of the immunized mice, and the serum separated from the blood was subjected to ELISA. By using 50 mM carbonate buffer, peptide-conjugated BSA was prepared at 10 μg/mL, and further a recombinant VASH2 protein was prepared at 1 μg/mL, each of which was added at 50 μL/well, and the resultant was left to stand overnight at 4° C. After the solution in each well was removed, 5% skim milk was added at 150 μL/well. […] After 30 minutes, the reaction was stopped by adding 0.5 N H2SO4 at 50 μL/well, and an absorbance (450 nm) was measured using a microplate reader."}, "K5 cells": {"test_system": "K5 cells", "test": "Tumor growth inhibitory effect, subcutaneous implant model of K5 cells", "type": "in vivo, mouse", "experimental": "100 μg of KLH (control) or 100 μg of the MTG peptide vaccine was prepared with physiological saline so that the total amount was 100 &L, respectively, whereby KLH-mixed solutions were obtained. To each of the KLH-mixed solutions (100 μL), an equal amount of Alhydrogel (registered trademark) was added. The obtained mixture (200 μL) was intradermally (ID) administered to C57BL/6Jx129SVJ mice aged 8 weeks, whereby initial immunization was carried out (0 day). After 2 weeks from the administration (14 days), booster immunization was carried out. Further, after 2 weeks from the booster immunization (28 days), K5 cells were implanted in each of the mice, whereby a subcutaneous implant model was prepared. In order to confirm that an anti-VASH2 antibody was induced in the mice, the blood was collected at 0 day, 14 day, and 28 day, and the antibody titer was confirmed by ELISA (FIG. 15)."}, "KPC mouse": {"test_system": "KPC mouse", "test": "Life-extending effect in KPC mouse, spontaneous pancreatic cancer model", "type": "in vivo", "conditions": "KPC mice n=8, 100 μg with Alhydrogel every two weeks; all KLH controls (n=7) died before 300 days", "experimental": "To a KPC mouse (aged 8 weeks at the initial immunization) that is a spontaneous pancreatic cancer model, 100 μg of the MTG peptide vaccine was administered together with Alhydrogel (registered trademark) every two weeks, and the survival rate thereof was confirmed (n=8). A KPC mouse to which 100 μg of KLH was administered according to the same schedule was used as a control (n=7) (FIG. 13)."}},
  "note": "Entries after “also recorded” stand apart in the source; their conditions may differ. Ends that are not written are not given here.",
  "data": [
    {"substance": "MTG peptide vaccine: MTG peptide MTGSAADTHR (SEQ ID NO: 4) conjugated with KLH as carrier by a glutaraldehyde method (also: conjugated with KLH by glutaraldehyde)", "values": [
      {"measurement": "expression of mZeb1 (epithelial-mesenchymal transition marker) in tumor tissue", "setting": "mZeb1", "value": "dose-dependent expression inhibitory effect; also recorded: significantly inhibited depending on the dose"},
      {"measurement": "cell migration, human-derived RH30 rhabdomyosarcoma cells", "setting": "[1]", "value": "migration inhibitory effect"},
      {"measurement": "antibody titer against the antigen peptide", "setting": "[2]; Example 1: C57BL/6J mice, KLH-antigen complex s.c., Freund's adjuvant, serum 2 weeks after booster (total 4 weeks)", "value": "significant concentration-dependent increase"},
      {"measurement": "production of an antibody specific to the antigen peptide", "setting": "[2]; Example 6: C57BL/6J mice, 20 or 100 μg, Alhydrogel, day 28", "value": "promotes the production of an antibody"},
      {"measurement": "induced antibody binding to the antigen peptide (MTG)", "setting": "[2]; Example 8: C57BL/6Jx129SVJ mice, 100 μg, Alhydrogel, day 28", "value": "induced an antibody that binds to both"},
      {"measurement": "tumor size (tumorigenesis), K5 cells, Experiment 1", "setting": "K5 cells; C57BL/6Jx129SVJ mice n=2, 100 μg, 14 to 40 days after implantation", "value": "significant inhibition of tumorigenesis"},
      {"measurement": "tumor size (tumorigenesis), K5 cells, Experiment 2", "setting": "K5 cells; C57BL/6Jx129SVJ mice n=11, 100 μg, day 15 after implantation, vs KLH p=0.0002", "value": "tumorigenesis was significantly inhibited"},
      {"measurement": "mice survived over 300 days after birth", "setting": "KPC mouse", "value": "at least 2 mice"}
    ]}
  ]
}
